Laboratory results published in patent US20060166867A1, “Novel conjugates of polysaccharides and uses thereof” (priority 2003, published 2006).
Like-named read-outs stand apart in the source and are kept apart here.

Legend:
HIV-1 IIIB = test: microbe, parasite or virus in culture; format: cell-based; settings: for inhibition activity (anti-HIV): in up to 50 μM concentrations
Protocol: (§1) Inhibition of HIV-1 cell replication was tested using the cMAGI assay, which is based on the ability of HIV-1 TAT to transactivate the expression of an integrated β-galactosidase reporter gene driven by the HIV-LTR (B. Chackeria et al., J. Virol., (1997) 71, 3932; Collins et al., Nat. Med. (2000) 6, 475). The β-galactosidase reporter is modified to remain localized in the nucleus where it can be detected with the X-gal (5-bromo-4-chloro-3indoyl-β-D-galactopyranoside) substrate as an intense nuclear stain within a few days of infection.
(§2) HIV-1 isolates were propagated by subculture in MT2 cells (Litovchick et al. (2001) supra). Aliquots of cell-free culture supernatants were used as viral inoculum. PAACs were dissolved in the RPMI 1640 medium. Cytotoxicity determinations were carried out in MT2 cells by trypan blue exclusion assay. Viral inhibition was determined by incubating MT2 or cMAGI HIV-1 reporter cells with 0.2-0.5 multiplicity of infection of HIV-1 wild type or resistant virus for 4 days at 37° C. in the presence or absence of various concentrations of pAACs. HIV-1 infection of cMAGI cells was determined by counting the number of HIV-1-infected cells (stained blue). The cytopathic effects of the viral infection of MT2 cells were also analyzed by microscopic assessment of syncytium formation.

in vitro = format: cell-based; settings: human, read-out: Cytotoxicity
Protocol: Cytotoxicity of the various pAACs was determined using the trypan blue exclusion assay. In brief, a sample of the cell suspension was diluted 1:1 (v/v) with 0.4% trypan blue and the cells were counted using a hemocytometer. Results are expressed as the percentage of dead cells.
as §2

[1] = system: HIV-1 AZT resistant virus; format: cell-based; settings: Table 4; read-out: EC50 AZT^Res
Protocol: as §1, §2

[2] = system: HIV-1 clinical isolate Clade C; format: cell-based
Protocol: as §1, §2

HIV-1 Ba-L = format: cell-based; settings: Table 4
Protocol: as §1, §2

[3] = system: HIV-1 clinical isolate Clade A; format: cell-based
Protocol: as §1, §2

[4] = system: HIV-1 Protease resistant virus; format: cell-based; settings: Table 4; read-out: EC50 Protease^Res
Protocol: as §1, §2

[5] = system: HIV-1 NeoR6 resistant virus; format: cell-based; settings: read-out: EC50 NeoR6^Res; Table 4
Protocol: as §1, §2

CXCR4 = target: T1, CXCR4 (Homo sapiens, UniProt P61073); test: Competition with 12G5 mAb binding to CXCR4 on MT2 cells (flow cytometry); settings: for median fluorescent intensity (MFI) of 12G5 mAb binding to MT2 cells: without compound 55.56, isotype control 4.0
T1 construct: incubated at 4° C. with anti-CXCR4 mAb, 12G5, conjugated to phycoerithrine (PE); endogenous in cells; host or cells: MT2 cells
Protocol: Interaction of pAACs and arginine peptides with CXCR4 coreceptor: Interactions of pAACs and arginine-peptides with CXCR4 were determined by flow cytometry (FACS-Scan, Becton Dickinson) as previously described (Litovich (2001) supra). In brief, 0.5×10^6 MT2 cells were washed with ice-cold PBS containing 0.1% sodium azide (wash buffer) and were incubated at 4° C. with anti-CXCR4 mAb, 12G5, conjugated to phycoerithrine (PE), in the absence or presence of different concentrations of pAACs and arginine peptides. After 30 minutes of incubation, the cells were washed with ice-cold wash buffer and fixed in PBS containing 1% paraformaldehyde. Non-specific fluorescence was assessed using an isotype control. For each sample 10,000 events were acquired. Data were analyzed and processed using CellQuest™ software (Becton Dickinson).

[6] = system: HIV-1 wild-type and NeoR6 resistant isolates; settings: cited from earlier work
[7] = Table 3, against HIV-1 IIIB virus, read-out: EC50
[8] = MT2 cells, Table 3, trypan blue exclusion
[9] = Table 4, read-out: EC50 Clade C
[10] = Table 4, read-out: EC50 Clade A
[11] = Table 4, tryphan blue exclusion assay for MT2 cells

T1 sequence (P61073 whole entry): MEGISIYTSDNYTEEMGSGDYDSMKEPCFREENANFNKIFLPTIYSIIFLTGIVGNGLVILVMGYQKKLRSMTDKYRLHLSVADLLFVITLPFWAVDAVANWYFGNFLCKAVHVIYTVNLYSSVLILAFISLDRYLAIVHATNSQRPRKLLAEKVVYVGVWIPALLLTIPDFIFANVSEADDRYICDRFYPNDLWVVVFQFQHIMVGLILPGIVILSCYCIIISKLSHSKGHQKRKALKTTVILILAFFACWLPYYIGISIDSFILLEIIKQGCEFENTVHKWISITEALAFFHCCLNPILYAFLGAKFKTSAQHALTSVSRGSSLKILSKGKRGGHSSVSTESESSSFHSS

## N=C(N)NCCC[C@H](NC(=O)[C@H](CCCNC(=N)N)NC(=O)[C@H](CCCNC(=N)N)NC(=O)[C@H](CCCNC(=N)N)NC(=O)[C@H](CCCNC(=N)N)NC(=O)[C@H](CCCNC(=N)N)NC(=O)[C@H](CCCNC(=N)N)NC(=O)[C@H](CCCNC(=N)N)NC(=O)[C@@H](N)CCCNC(=N)N)C(=O)NC[C@@H]1O[C@H](O[C@H]2[C@@H](O)[C@H](O[C@@H]3[C@@H](O)[C@H](N)C[C@H](N)[C@H]3O[C@H]3O[C@H](CO)[C@@H](O)[C@H](O)[C@H]3N)O[C@@H]2CO)[C@H](N)[C@@H](O)[C@@H]1O [Compound 7, L-Arg-9-mer-paromomycin]
HIV-1 IIIB; [7]
  EC50: 31 ± 9 µM
In vitro; [8]
  CC50: 140 µM

## N=C(N)NCCC[C@H](NC(=O)[C@H](CCCNC(=N)N)NC(=O)[C@H](CCCNC(=N)N)NC(=O)[C@H](CCCNC(=N)N)NC(=O)[C@H](CCCNC(=N)N)NC(=O)[C@@H](N)CCCNC(=N)N)C(=O)NC[C@@H]1O[C@H](O[C@H]2[C@@H](O)[C@H](O[C@@H]3[C@@H](O)[C@H](N)C[C@H](N)[C@H]3O[C@H]3O[C@H](CO)[C@@H](O)[C@H](O)[C@H]3N)O[C@@H]2CO)[C@H](N)[C@@H](O)[C@@H]1O [Compound 3, L-Arg-6-mer-paromomycin]
HIV-1 IIIB; [7]
  EC50: 31 ± 10 µM
In vitro; [8]
  CC50: 160 µM

## CC(=O)N[C@H](CCCNC(=N)N)C(=O)N[C@H](CCCNC(=N)N)C(=O)N[C@H](CCCNC(=N)N)C(=O)N[C@H](CCCNC(=N)N)C(=O)N[C@H](CCCNC(=N)N)C(=O)N[C@H](CCCNC(=N)N)C(=O)NC[C@H]1O[C@H](O[C@H]2[C@H](O)[C@@H](O)[C@H](N)C[C@@H]2N)[C@H](N)[C@@H](O)[C@@H]1O [Compound 10, D-Arg-6-mer-neamine]
HIV-1 IIIB; Table 4, read-out: EC50 IIIB
  EC50: 1.8 ± 0.1 µM
[1]
  EC50: 7 ± 4 µM
[2]; [9]
  EC50: 1.7 ± 0.1 µM
HIV-1 Ba-L
  EC50: > 50 µM
[3]; [10]
  EC50: 3.2 ± 1.3 µM
[4]
  EC50: 2.2 ± 0.4 µM
[5]
  EC50: 2.6 ± 1.2 µM
CXCR4; 2 μM
  % Inhibition of 12G5 mAb binding to CXCR4: 91.1%
  median fluorescent intensity (MFI) of 12G5 mAb binding to MT2 cells: 9.6
CXCR4; 10 μM
  median fluorescent intensity (MFI) of 12G5 mAb binding to MT2 cells: 3.3
CXCR4; read-out: % Inhibition of 12G5 mAb binding to CXCR4, 2 μM
  inhibition at 2 µM: 91%
CXCR4; read-out: % Inhibition of 12G5 mAb binding to CXCR4, 10 μM
  inhibition at 10 µM: 100%
In vitro; [11]
  CC50: 150 µM

## N=C(N)NCCC[C@H](NC(=O)[C@@H](N)CCCNC(=N)N)C(=O)NCC1OC(OC2C(N)CC(N)C(O)C2O)C(N)C(O)C1O (stereo partly drawn) [Compound 21, L-Arg-2-mer-neamine]
HIV-1 IIIB; [7]
  EC50: ~46 µM

## N=C(N)NCCC[C@H](NC(=O)[C@H](CCCNC(=N)N)NC(=O)[C@H](CCCNC(=N)N)NC(=O)[C@H](CCCNC(=N)N)NC(=O)[C@H](CCCNC(=N)N)NC(=O)[C@@H](N)CCCNC(=N)N)C(=O)O [Compound 1, L-Arg-6mer-NH2]
HIV-1 IIIB; [7]
  EC50: 110 µM
HIV-1 IIIB
  inhibition activity (anti-HIV): no inhibition activity

## CC(=O)N[C@H](CCCNC(=N)N)C(=O)N[C@H](CCCNC(=N)N)C(=O)N[C@H](CCCNC(=N)N)C(=O)N[C@H](CCCNC(=N)N)C(=O)N[C@H](CCCNC(=N)N)C(=O)N[C@H](CCCNC(=N)N)C(=O)O [Compound 9, D-Arg-6-mer-NHAc]
HIV-1 IIIB; Table 4, read-out: EC50 IIIB
  EC50: 5.8 ± 1.7 µM
[1]
  EC50: 15.2 ± 6.2 µM
[2]; clinical isolate Clade C
  EC50: 5.3 ± 0.3 µM
HIV-1 Ba-L
  EC50: > 50 µM
[3]; clinical isolate Clade A
  EC50: 8 ± 1 µM
[4]
  EC50: 4.9 ± 1 µM
[5]
  EC50: 6.8 ± 0.7 µM
CXCR4; 2 μM, read-out: % Inhibition of 12G5 mAb binding to CXCR4
  inhibition at 2 µM: 1.6%
CXCR4; 10 μM, read-out: % Inhibition of 12G5 mAb binding to CXCR4
  inhibition at 10 µM: 70.9%
In vitro; [11]
  CC50: 170 µM

## N=C(N)NCCC[C@H](NC(=O)[C@H](CCCNC(=N)N)NC(=O)[C@H](CCCNC(=N)N)NC(=O)[C@H](CCCNC(=N)N)NC(=O)[C@H](CCCNC(=N)N)NC(=O)[C@H](CCCNC(=N)N)NC(=O)[C@H](CCCNC(=N)N)NC(=O)[C@H](CCCNC(=N)N)NC(=O)[C@@H](N)CCCNC(=N)N)C(=O)NC[C@H]1O[C@H](O[C@H]2[C@H](O)[C@@H](O)[C@H](N)C[C@@H]2N)[C@H](N)[C@@H](O)[C@@H]1O [Compound 6, L-Arg-9-mer-neamine]
HIV-1 IIIB; [7]
  EC50: 37.5 ± 2.5 µM
CXCR4; read-out: % Inhibition of 12G5 mAb binding to CXCR4, 80 μM
  inhibition at 80 µM: 30.1%
In vitro; [8]
  CC50: 175 µM

## NC[C@H]1O[C@H](O[C@H]2[C@H](O)[C@@H](O)[C@H](N)C[C@@H]2N)[C@H](N)[C@@H](O)[C@@H]1O [neamine, Neamine, reference compound]
HIV-1 IIIB
  inhibition activity (anti-HIV): no inhibition activity

## N=C(N)NCCC[C@H](NC(=O)[C@H](CCCNC(=N)N)NC(=O)[C@H](CCCNC(=N)N)NC(=O)[C@H](CCCNC(=N)N)NC(=O)[C@H](CCCNC(=N)N)NC(=O)[C@@H](N)CCCNC(=N)N)C(=O)NC[C@H]1O[C@H](O[C@H]2[C@H](O)[C@@H](O)[C@H](N)C[C@@H]2N)[C@H](N)[C@@H](O)[C@@H]1O [Compound 2, L-Arg-6-mer-neamine]
HIV-1 IIIB; [7]
  EC50: 70 ± 10 µM
CXCR4; read-out: % Inhibition of 12G5 mAb binding to CXCR4, 20 μM
  inhibition at 20 µM: 35.4%
In vitro; [8]
  CC50: 210 µM

## N=C(N)NCCCC(N)C(=O)NC(CCCNC(=N)N)C(=O)NC(CCCNC(=N)N)C(=O)NC(CCCNC(=N)N)C(=O)NC(CCCNC(=N)N)C(=O)NC(CCCNC(=N)N)C(=O)NC(CCCNC(=N)N)C(=O)NC(CCCNC(=N)N)C(=O)NC(CCCNC(=N)N)C(=O)NC[C@H]1O[C@H](O[C@H]2[C@H](O)[C@@H](O)[C@H](N)C[C@@H]2N)[C@H](N)[C@@H](O)[C@@H]1O (stereo partly drawn) [Compound 16, D/L-Arg-9-mer-neamine]
In vitro; [8]
  CC50: 160 µM

## L-Arg-6-mer-neomycin [Compound 4]
HIV-1 IIIB; [7]
  EC50: 40 ± 12 µM

## D-Arg-6-mer-neomycin [Compound 11]
HIV-1 IIIB; Table 4, read-out: EC50 IIIB
  EC50: 2.1 ± 0.6 µM
[1]
  EC50: 10.4 ± 4.1 µM
[2]; [9]
  EC50: 3 ± 0.8 µM
HIV-1 Ba-L
  EC50: > 50 µM
[3]; [10]
  EC50: 5.7 ± 2.8 µM
[4]
  EC50: 4 ± 1 µM
[5]
  EC50: 5.3 ± 2.5 µM
CXCR4; 2 μM
  % Inhibition of 12G5 mAb binding to CXCR4: 79%
CXCR4; 2 μM, listed as r6-D-arginine-neomycin
  % Inhibition of 12G5 mAb binding to CXCR4: 91.1%
CXCR4; 10 μM
  % Inhibition of 12G5 mAb binding to CXCR4: 99.3%

## tri-arginine gentamycin C1 conjugate [Compound R3G]
[6]
  times more resistant, NeoR6^res isolates than wild-type virus: about 5 times
[6]; wild-type and NeoR6 resistant isolates
  EC50: 4.1 µM
